Test results as given in PubChem BioAssay AID1159561 (GlaxoSmithKline (GSK), 2015).
Calls of active or inactive are those of the source.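 How the source made its calls: active means toxic to mouse fibroblast host cells, with IC50 below 50 µM; inactive means the rest.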

Test system: NIH-3T3 viability, ATP luminescence
Assay: murine fibroblast viability via ATP level – cell-based, murine fibroblasts, cytotoxicity control for Trypanosoma cruzi inhibitor project (AID 1159561)
Settings: 4 days

Structure (SMILES)	IC50
COc1ccc2ncc(=O)n(CCN3CCOC(CNCc4ccc(C(F)(F)F)cc4F)C3)c2n1 (stereo not given)	4 µM
CN(C)Cc1ccc(-c2ccc(S(=O)(=O)NCC3CCCO3)c(F)c2)cc1 (stereo not given)	16 µM
O=C(Cn1cnc2cc([N+](=O)[O-])ccc2c1=O)NCCc1ccc(Cl)cc1Cl	> 50 µM (inactive)
N#Cc1cccc(CN2CCC(N(Cc3cccnc3)C(=O)c3cc(F)c(F)cc3F)CC2)c1	20 µM
COc1ccc(-c2ccc3nnc(-c4ccc(O)c(OC)c4)n3c2)cn1	50 µM
CN(Cc1nc2ccccc2s1)C(=O)C=Cc1cc2ccccc2o1	32 µM
COc1cc(-c2nc(N3CCOCC3)sc2-c2ccnc(NC3CCOCC3)n2)ccc1Cl	> 50 µM (inactive)
Cn1nc([N+](=O)[O-])nc1Oc1ccc(C(=O)c2ccccc2)cc1	> 50 µM (inactive)
O=C(CCCn1cnc([N+](=O)[O-])n1)Nc1cccc(Cl)c1	> 50 µM (inactive)
Cc1cc2ncn(-c3ccc([N+](=O)[O-])cc3C#N)c2cc1C	> 50 µM (inactive)
